Test results as given in US12281086B2, “2-aminothiazoles derivatives and method of preparation thereof using super-paramagnetic iron oxide nanoparticles (SPIONs)” (Imam Abdulrahman Bin Faisal University, priority 2023, dated 2025).

Experiments:
Type in all cases: cell-based
E. coli = test: Anti-microbial activity, inhibition zone, E. coli; as to Inhibition Zone(mm ± SD) E. coli: test concentration or dose not given here
Method: (§1) All synthesized compounds were tested for their antimicrobial activities against five types of microorganisms, including gram-negative and positive bacteria and fungi. The gram-negative bacteria include E. coli and P. aeruginosa, while B. subtilis and S. aureus represented the gram-positive bacteria. C. albicans was the fungus used in the screening. […] In addition, the antibacterial activity of the Schiff bases seems to be insensitive to the position and the nature of the substituents. […] For the gram-positive bacteria, the antibacterial activity was more significant in Schiff base derivatives when compared to azo derivatives.

P. aeruginosa = test: Anti-microbial activity, inhibition zone, P. aeruginosa; as to Inhibition Zone(mm ± SD) P. aeruginosa: test concentration or dose not given here
Method: as §1

B. subtilis = test: Anti-microbial activity, inhibition zone, B. subtilis; as to Inhibition Zone(mm ± SD) Bacillus: test concentration or dose not given here; details: for Inhibition Zone(mm ± SD) Bacillus: Bacillus (B. subtilis)
Method: as §1

S. aureus = test: Anti-microbial activity, inhibition zone, S. aureus; as to Inhibition Zone(mm ± SD) S. aureus: test concentration or dose not given here
Method: as §1

C. albicans = test: Anti-microbial (antifungal) activity, inhibition zone, C. albicans; also: test concentration or dose not given here
Method: as §1

Row | SMILES | Inhibition Zone(mm ± SD) E. coli (E. coli) | Inhibition Zone(mm ± SD) P. aeruginosa (P. aeruginosa) | Inhibition Zone(mm ± SD) Bacillus (B. subtilis) | Inhibition Zone(mm ± SD) S. aureus (S. aureus) | Inhibition Zone(mm ± SD) Candida (C. albicans) | growth inhibition against P. aeruginosa (in words) (P. aeruginosa) | activity against B. subtilis (in words) (B. subtilis) | activity against S. aureus (in words) (S. aureus) | antibacterial activity against E. coli (in words) (E. coli)
1 | COc1ccc(C=Nc2nccs2)cc1 [Compound 14, N-(4-methoxybenzylidene)thiazol-2-amine] | 12.3 ± 0.4 mm | Nil | 10.3 ± 0.4 mm | Nil | Nil |  |  |  | 
2 | Cc1[nH]c2ccccc2c1C=Nc1nccs1 [Compound 18, N-((2-methyl-1H-indol-3-yl)methylene)thiazol-2-amine] | 16.2 ± 0.9 mm | 14.6 ± 0.7 mm | 10 ± 0.2 mm | 11.3 ± 0.4 mm | Nil | showed growth inhibition |  |  | 
3 | COc1ccccc1C=Nc1nccs1 [Compound 15, N-(2-methoxybenzylidene)thiazol-2-amine] | 12.6 ± 0.5 mm | Nil | Nil | Nil | Nil |  |  |  | 
4 | NC1=NNC(=O)C1N=Nc1nccs1 (stereo not drawn) [Compound 7, 3-amino-4-(thiazol-2-yldiazenyl)-1H-pyrazol-5(4H)-one] | 16 ± 1.4 mm | Nil | 8.6 ± 0.4 mm | 12.3 ± 0.9 mm | 12 ± 0 mm |  | showed activity | showed activity | 
5 | Oc1ccccc1C=Nc1nccs1 [Compound 13, 2-((thiazol-2-ylimino)methyl)phenol] | 14.95 ± 0.5 mm | 9 ± 0.8 mm | 11.3 ± 0.4 mm | 9.6 ± 0.3 mm | Nil | showed growth inhibition | exhibited activities | exhibited activities | 
6 | CC1=NNC(=O)C1N=Nc1nccs1 (stereo not drawn) [Compound 6, 3-methyl-4-(thiazol-2-yldiazenyl)-1H-pyrazol-5(4H)-one] | 22 ± 0.8 mm | 16 mm | Nil | Nil | Nil | showed growth inhibition |  |  | most potent antibacterial activity
7 | O=[N+]([O-])c1ccccc1C=Nc1nccs1 [Compound 11, N-(2-nitrobenzylidene)thiazol-2-amine] | 12.3 ± 0.9 mm | 11.8 ± 0.6 mm | 8.6 ± 0.9 mm | 10.6 ± 0.4 mm | Nil | showed growth inhibition | exhibited activities | exhibited activities | 
8 | Clc1ccc(C=Nc2nccs2)cc1 [Compound 10, N-(4-chlorobenzylidene)thiazol-2-amine] | 14.3 ± 0.4 mm | Nil | Nil | Nil | Nil |  |  |  | 
9 | COc1ccc(C=Nc2nccs2)c(OC)c1 [Compound 16, N-(2,4-dimethoxy-benzylidene)-thiazol-2-yl-amine] | 13 ± 0.4 mm | Nil | 12.3 ± 0.4 mm | 13 ± 0.1 mm | Nil |  | exhibited activities | exhibited activities | 
10 | CC1=NN=C(C)C1N=Nc1nccs1 [Compound 8, (3,5-Dimethyl-4H-pyrazol-4-yl)-thiazol-2-yl-diazene] | 20.6 ± 0.9 mm | Nil | 10.6 ± 0.4 mm | Nil | Nil |  |  |  | 
11 | Oc1ccc(C=Nc2nccs2)cc1 [Compound 12, 4-((thiazol-2-ylimino)methyl)phenol] | 13.3 ± 1.2 mm | Nil | Nil | 10.3 ± 0.7 mm | Nil |  |  |  | 
12 | ClN=Nc1nccs1 [Compound 2, 2-(Chlorodiazenyl)Thiazole] | 10.15 ± 0.4 mm | Nil | Nil | Nil | Nil |  |  |  | 
13 | COc1cccc(C=Nc2nccs2)c1OC [Compound 17, N-(2,3-dimethoxybenzylidene)thiazol-2-amine] | 10.95 ± 0.3 mm | Nil | Nil | 9.3 ± 0.4 mm | Nil |  |  |  | 
14 | C(=Nc1nccs1)c1ccccc1 [Compound 9, N-(benzylidene)thiazol-2-amine] | 8.8 ± 0.4 mm | 8 ± 0 mm | Nil | Nil | Nil | showed growth inhibition |  |  | least potent
15 | Nc1nccs1 [Compound 1, 2-aminothiazole] | 9.8 ± 0.2 mm | Nil | Nil | Nil | Nil |  |  |  | 
